Test results published in US20180188270A1, “DIAGNOSTIC TEST FOR ALZHEIMER'S DISEASE BASED ON IDENTIFICATION OF A PROTEOLYTIC PATHWAY” (Health Research, Inc., priority 2015, published 2018).
Values joined by “and” are separate entries in the source; they are usually repeats but may differ in a detail not shown here. Equal entries are not always repeated. “Also recorded” adds a separate entry of the source.

Experiments:
Assay type in all cases: in vivo, mouse
[1] = tested on: plasma PEPD; assay: Plasma PEPD concentration in mice by ELISA; conditions: for plasma level of mPEPD, increase: CCl4 0.5 g/kg i.p., 24 h; for average plasma level of total PEPD, higher than with hPEPD alone: hPEPD 0.2 mg/kg 1 h after last EP dose
Description: (§1) Animal studies. All animal studies were performed in accordance with protocols approved by the Institutional Animal Care and Use Committee at Roswell Park Cancer Institute. Male mice at 7-8 weeks of age were used, including wild type (WT) mice (C57BL/6), and mice deficient in FXII (C57BL/6-FXII^−/−) or FVII (C57BL/6-FVII^tTA/tTA). WT C57BL/6 mice were purchased from Taconic. C57BL/6-FXII^−/− mice and C57BL/6-FVII^tTA/tTA mice were bred in our own facility and genotyped. The breeders were kindly provided by Dr. Francis J. Castellino at University of Notre Dame. […] CCl4 was dissolved in corn oil, whereas all other substances were dissolved in PBS. The vehicle or the test substance was given to mice in 0.1 ml volume per 20 g body weight. Blood was collected from the mice at specific times by cardiac puncture at the time of sacrifice by carbon dioxide, and heart, liver and kidney were also collected from some of the mice. Blood was collected into K3 EDTA-containing tubes (Multivette 600 from Sarstedt), unless specified otherwise. All blood samples were promptly centrifuged to obtain plasma samples.
Measurement of plasma levels of PEPD, SRC, Aβ1-42 and FI. […] The plates were washed three times with phosphate buffered saline tween-20 (PBST) and the coated wells were blocked by incubation with 200 μl/well of 1% BSA in PBS for at least 2 h at RT. After another round of wash with PBST, the plates were incubated with appropriately diluted Aβ1-42 standard, SRC standard or plasma samples (100 μl/well) for 2 h at RT. The plates were then washed with PBST and incubated with an anti-Aβ1-42 rabbit polyclonal antibody (sc-9129) or anti-SRC rabbit monoclonal antibody (2123) at 100 μl/well for 2 h at RT. The plates were washed again with PBST, and each well was incubated with a goat anti-rabbit IgG-HRP conjugate (100 μl) for 1 h at RT. After yet another round of wash with PBST, each well was incubated with 100 μl of HRP substrate 3,3′,5,5′-tetramethylbenzedine (Cell Signaling, 7004). Upon adequate color development, 100 μl of stop solution (Cell Signaling, 7002) was added to each well, and absorbance at 450 nm was promptly recorded by a microtiter plate reader. Plasma FI concentration was determined using an assay kit (400-374-130050) from GenWay Biotech, following the manufacturer's instruction.

[2] = tested on: plasma Aβ1-42; assay: Plasma Aβ1-42 concentration in mice by ELISA
Description: Animal studies. All animal studies were performed in accordance with protocols approved by the Institutional Animal Care and Use Committee at Roswell Park Cancer Institute. Male mice at 7-8 weeks of age were used, including wild type (WT) mice (C57BL/6), and mice deficient in FXII (C57BL/6-FXII^−/−) or FVII (C57BL/6-FVII^tTA/tTA). WT C57BL/6 mice were purchased from Taconic. C57BL/6-FXII^−/− mice and C57BL/6-FVII^tTA/tTA mice were bred in our own facility and genotyped. […] CCl4 was dissolved in corn oil, whereas all other substances were dissolved in PBS. The vehicle or the test substance was given to mice in 0.1 ml volume per 20 g body weight. Blood was collected from the mice at specific times by cardiac puncture at the time of sacrifice by carbon dioxide, and heart, liver and kidney were also collected from some of the mice. Blood was collected into K3 EDTA-containing tubes (Multivette 600 from Sarstedt), unless specified otherwise. All blood samples were promptly centrifuged to obtain plasma samples.

[3] = tested on: plasma mSRC; assay: Plasma SRC concentration in mice by ELISA; conditions: FXII−/− mice, CCl4 0.5 g/kg or hPEPD 4 mg/kg i.p., 24 h
Description: as §1, with “Blood was collected into K3 EDTA-containing tubes (Multivette 600 from Sarstedt), unless specified otherwise. All blood samples were promptly centrifuged to obtain plasma samples.” left out
Measurement of plasma levels of PEPD, SRC, Aβ1-42 and FI. […] Upon adequate color development, 100 μl of stop solution (Cell Signaling, 7002) was added to each well, and absorbance at 450 nm was promptly recorded by a microtiter plate reader. Plasma FI concentration was determined using an assay kit (400-374-130050) from GenWay Biotech, following the manufacturer's instruction.

[4] = tested on: liver; assay: Liver damage after CCl4: plasma AST and ALT, liver weight; conditions: WT mice and FXII−/− mice, CCl4 0.5 g/kg i.p., 24 h
Description: as §1
Measurement of Plasma Levels of Aspartate Transaminase (AST) and Alanine Transaminase (ALT). Plasma AST activity was measured using the Infinity™ AST (GOT) Reagent kit (Thermo, TR70121). Plasma ALT activity was measured using the Infinity™ ALT (GPT) Reagent kit (Thermo, TR71121). […]

[5] = tested on: ERBB1 and ERBB2; assay: Tissue levels and phosphorylation of ERBB1 and ERBB2 by IB; conditions: CCl4 0.5 g/kg or hPEPD 4 mg/kg i.p., 24 h
Description: as §1
IB. […] Protein concentrations in all samples were measured by the BCA assay kit. […] The proteins were transferred to polyvinylidene fluoride membrane, probed with specific antibodies and detected using the ECL Plus Kit (Amersham) or the SuperSignal West Pico Kit (Thermo Scientific).

[6] = tested on: total plasma Aβ1-40 and Aβ1-42; assay: Total plasma level of Aβ1-40 and Aβ1-42 in J20 AD mice and WT mice by ELISA; conditions: for increase in total plasma levels of Aβ1-40 and Aβ1-42: EP 0.5 mg/kg i.p. daily 5 days
Description: (§2) B6.Cg-Tg(PDGFB-APPSwlnd) 20 Lms/2 JMjax mice, also known as J20 mice, were purchased from Jackson Laboratory. J20 mice express a mutant form of the human Aβ precursor protein (APP) bearing both the Swedish (K670N/M671L) and the Indiana (V717F) mutations (APPSwlnd) (Mucke et al., J Neurosci, 2000, 20, 4050-4058). Neural expression of the transgenic insert is directed by the human platelet-derived growth factor beta polypeptide (PDGFB) promoter. J20 mice in C57BL/6 background (male hemizygotes) were bred to wild type (WT) female C57BL/6J mice (also purchased from Jackson Laboratory). F1 mice were genotyped by PCR at weaning to identify the hemizygotes and the non-transgenic littermates. Mice at age of 1 month and 3 months were treated once daily with vehicle or EP (0.5 mg/kg) i.p for 5 days. EP was given in PBS (0.1 ml per 20 g body weight). Blood was collected from the mice at 6 h after the last PBS/EP dose by cardiac puncture at the time of sacrifice by carbon dioxide. Blood was collected into K3 EDTA-containing tubes (Multivette 600 from Sarstedt).
Total plasma levels of Aβ1-40 and Aβ1-42 were measured by ELISA. Briefly, 96-well ELISA plates were coated with an anti-Aβ1-42 monoclonal antibody (sc-374527) at 0.25 μg/100 μl/well at 4° C. overnight. The plates were washed three times with phosphate buffered saline tween-20 (PBST) and the coated wells were blocked by incubation with 200 μl/well of 1% BSA in PBS for at least 2 h at RT. […] The plates were then washed with PBST and incubated with an anti-Aβ1-42 rabbit polyclonal antibody (sc-9129) at 100 μl/well for 2 h at RT. The plates were washed again with PBST, and each well was incubated with a goat anti-rabbit IgG-HRP conjugate (100 μl) for 1 h at RT. After yet another round of wash with PBST, each well was incubated with 100 μl of HRP substrate 3,3′,5,5′-tetramethylbenzedine (Cell Signaling, 7004). Upon adequate color development, 100 μl of stop solution (Cell Signaling, 7002) was added to each well, and absorbance at 450 nm was promptly recorded by a microtiter plate reader.

[7] = tested on: plasma coagulation factors FXII, PK, HMWK, FXI, FIX, FX, FII, FI and FVII; assay: Changes in plasma coagulation factors in mice by IB (FI by ELISA)
Description: Animal studies. […] Male mice at 7-8 weeks of age were used, including wild type (WT) mice (C57BL/6), and mice deficient in FXII (C57BL/6-FXII^−/−) or FVII (C57BL/6-FVII^tTA/tTA). WT C57BL/6 mice were purchased from Taconic. C57BL/6-FXII^−/− mice and C57BL/6-FVII^tTA/tTA mice were bred in our own facility and genotyped. […] CCl4 was dissolved in corn oil, whereas all other substances were dissolved in PBS. The vehicle or the test substance was given to mice in 0.1 ml volume per 20 g body weight. Blood was collected from the mice at specific times by cardiac puncture at the time of sacrifice by carbon dioxide, and heart, liver and kidney were also collected from some of the mice. Blood was collected into K3 EDTA-containing tubes (Multivette 600 from Sarstedt), unless specified otherwise. All blood samples were promptly centrifuged to obtain plasma samples.
The plates were washed three times with phosphate buffered saline tween-20 (PBST) and the coated wells were blocked by incubation with 200 μl/well of 1% BSA in PBS for at least 2 h at RT. […] The plates were washed again with PBST, and each well was incubated with a goat anti-rabbit IgG-HRP conjugate (100 μl) for 1 h at RT. After yet another round of wash with PBST, each well was incubated with 100 μl of HRP substrate 3,3′,5,5′-tetramethylbenzedine (Cell Signaling, 7004). Upon adequate color development, 100 μl of stop solution (Cell Signaling, 7002) was added to each well, and absorbance at 450 nm was promptly recorded by a microtiter plate reader. Plasma FI concentration was determined using an assay kit (400-374-130050) from GenWay Biotech, following the manufacturer's instruction.
IB. Tissue samples were mixed with RIPA buffer (25 mM Tris-HCl, pH 7.6, 150 mM NaCl, 1% Nonidet P-40, 1% sodium deoxycholate, 0.1% SDS), supplemented with 2 mM phenylmethanesulfonyl fluoride, a proteinase inhibitor mix (Roche Applied Science) and phosphatase inhibitor Cocktail 2 (Sigma-Aldrich). Tissue samples were stroked in a Dounce homogenizer, and the homogenates were cleared by centrifugation at 12,000×g for 15 min at 4° C. Protein concentrations in all samples were measured by the BCA assay kit. Plasma samples were used without further processing (20 μl per sample). Each sample was mixed with 4× loading dye, heated for 5 min at 95° C. and then resolved by SDS-PAGE (8-12.5%). […] The proteins were transferred to polyvinylidene fluoride membrane, probed with specific antibodies and detected using the ECL Plus Kit (Amersham) or the SuperSignal West Pico Kit (Thermo Scientific).

[8] = tested on: coagulation factors FX, FII and FVII; assay: Coagulation proteases in J20 AD mice by western blotting; conditions: AD mice at 1 month and 3 months of age, EP 0.5 mg/kg i.p. daily 5 days
Description: as §2

[9] = tested on: plasma hAβ1-40; assay: Plasma hAβ1-40 level in mice by ELISA; conditions: EP 0.5 mg/kg i.p. daily 5 days, hAβ1-40 40 μg/kg 1 h after fifth dose, 6 h
Description: Male C57BL/6 mice (7-8 weeks of age) were purchased from Taconic and were treated with vehicle (PBS) and EP (0.5 mg/kg) i.p. once daily for 5 days. […] Blood was collected into K3 EDTA-containing tubes (Multivette 600 from Sarstedt). […] The plates were washed three times with phosphate buffered saline with tween-20 (PBST) and the coated wells were blocked by incubation with 200 μl/well of 1% BSA in PBS for at least 2 h at room temperature (RT). […] The plates were washed again with PBST, and each well was incubated with a goat anti-rabbit IgG-HRP conjugate (100 μl) for 1 h at RT.

[10] = WT mice, EP 2.5 mg/kg i.p. daily 5 days
[11] = WT mice, EP 2.5 mg/kg daily 5 days, hPEPD 0.2 mg/kg

For ClC(Cl)(Cl)Cl [CCl4, Carbon tetrachloride], the “plasma level of mPEPD, increase” value ([1]; FXII−/− mice) was 16.7 fold, the “plasma level of mPEPD, increase” value ([1]; WT mice) was 3.7 fold and the “average plasma level of mAβ1-42, increase” value ([2]; FXII−/− mice, CCl4 0.5 g/kg or hPEPD 4 mg/kg i.p., 24 h) was 24.9%. The “average plasma level of mSRC, increase” value [3] was 6.7%, the “liver damage (plasma AST, ALT, liver weight)” value [4] was “caused significant but similar liver damage” and the “changes in ERBB1/ERBB2 tyrosine phosphorylation and receptor depletion in heart, kidney and liver, WT mice compared to FXII−/− mice” value [5] was “reduced changes in receptor tyrosine phosphorylation”.

With enoxaparin [EP] the “ratio of EP-induced increase in total plasma levels of Aβ1-40 and Aβ1-42 in AD mice to WT mice” value ([6]; 1 month of age) was 8.71-9.32, the “ratio of EP-induced increase in total plasma levels of Aβ1-40 and Aβ1-42 in AD mice to WT mice” value ([6]; 3 month of age) was 47.53-56.85 and the “increase in total plasma levels of Aβ1-40 and Aβ1-42” value ([6]; AD mice, 1 month of age) was “about 2.3 fold”. For the same compound, the “increase in total plasma levels of Aβ1-40 and Aβ1-42” value ([6]; AD mice, 3 month of age) was 3.6-4.2 fold, the “increase in total plasma levels of Aβ1-40 and Aβ1-42” value ([6]; WT mice at both 1 month and 3 months of age) was “about 1.6 fold” and the “average plasma level of total PEPD in WT mice, lower than in FXII−/− mice” value ([1]; EP pretreatment, 6 h after hPEPD 0.2 mg/kg i.p.) was 14.6%. For the same compound, the “effect of EP on plasma PEPD level” value ([1]; FXII−/− mice, EP 2.5 mg/kg i.p. daily 5 days) was “did not show a significant effect”, the “plasma level of mPEPD, increase by EP” value [1, 10] was 2.0 fold and 2.1 fold and the “average plasma level of total PEPD, higher than with hPEPD alone” value ([1]; WT mice, EP 2.5 mg/kg i.p. daily 5 days, 1 h after hPEPD) was 35.2 fold. For the same compound, the “average plasma level of total PEPD, higher than with hPEPD alone” value ([1]; WT mice, EP 2.5 mg/kg i.p. daily 5 days, 24 h after hPEPD) was 63.8 fold, the “average plasma level of total PEPD” value ([1]; WT mice, EP pretreatment, 6 h after hPEPD 0.2 mg/kg i.p.) was 19.7 nM and the “reduction of hPEPD dose allowed by EP without decreasing its plasma concentration” value ([1]; mice, plasma concentration required for inhibition of ERBB2-driven tumors) was “at least 50 fold”. The “EP inhibition of hPEPD-induced slight activation of FX, FII and FVII” value ([7]; FXII−/− mice) was “largely inhibited by EP”, the “EP inhibition of activation of FX, FII and FVII” value ([7]; WT mice treated with hAβ1-42 40 μg/kg, EP 2.5 mg/kg daily 5 days) was “greatly inhibited the activation of FX, FII and FVII” and the “EP prevention of hPEPD-induced activation of FXII, PK, HMWK, FXI and FIX” value [7, 11] was “failed to prevent hPEPD from activating FXII, PK, HMWK, FXI and FIX”. The “EP prevention of hPEPD-induced activation or cleavage of FX, FII, FI and FVII” value [7, 11] was “prevented hPEPD from causing activation or cleavage of FX, FII, FI and FVII”, the “effect of EP itself on plasma coagulation factors” value [7, 10] was “had no effect on any of the FXII-FVII pathway factors measured; also recorded: had no effect on these factors” and the “EP effect on activation of FX, FII and FVII” value [8] was “inhibits the activation of FX, FII and FVII”. For the same compound, the “average plasma level of endogenous mAβ1-42, higher in EP-treated mice than in control mice” value [2, 10] was 1.7 fold, the “plasma level of total Aβ1-42, increase after EP plus hAβ1-42” value ([2]; WT mice, EP 2.5 mg/kg i.p. daily 5 days, hAβ1-42 40 μg/kg 1 h after last dose, 6 h) was 406.0 fold and the “elevation of average plasma hAβ1-40 concentration by EP pretreatment” value [9] was 77.4 fold.
